This is an account of results in PubChem BioAssay (NCI).

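Test compounds were applied to cells in 96-well plates for 48 hours at 5 doses. The concentration for 50% growth inhibition is given as GI50. TGI: total growth inhibition.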

Common to all, as to assay: inhibition of tumour cell growth, NCI panel, 48 h
Assay [1] concerns A498 renal.
Assay [2] deals with A549 NSCLC.
In assay [3] the test system is ACHN renal.
The test system of assay [4] is CCRF-CEM leukemia.
For assay [5], the system named is HT29 colon.
Assay [6] relates to LOX IMVI melanoma.
The subject of assay [7] is NCI-H23 lung.
For assay [8], the system named is SNB-75 CNS.
Assay [9] deals with SK-MEL-2 melanoma.

For `O=C(COC(=O)c1cccc2c(=O)c3ccccc3[nH]c12)Nc1ccc(S(=O)(=O)Nc2ncccn2)cc1`, the TGI is greater than 100 µM in [1]; greater than 100 µM in [2]; greater than 100 µM in assay [3]; 67.4 µM in assay [4]; greater than 100 µM in assay [5]; greater than 100 µM in assay [6]. For the same compound, the TGI is greater than 100 µM in assay [7] and 92.7 µM in [8].
Take `COc1ccc(/C=C2\CCc3ccccc3C2=O)cc1OC`: the TGI in assay [1], in assay [2], in [3], in [4], in [5] and in [7] was greater than 100 µM each time. The results for the TGI in [9] and in assay [8] were 83.9 µM and 76.9 µM, respectively.
Turning to `CC(=O)OC1(C#N)CC2OC1C1N=NN(C(=O)OC(C)(C)C)C21` (stereo not given), the TGI in assay [1] is greater than 100 µM; in assay [3] it was greater than 100 µM; in assay [4], 83.8 µM; in assay [5] it was greater than 100 µM; in [6], greater than 31.6 µM; in [9] it was greater than 100 µM. The same compound came in with a TGI in assay [8] greater than 100 µM.
For the compound `COC(=O)c1ccc(/C=C/S(=O)(=O)c2ccccc2)cc1`, the TGI in [1], in [2], in assay [3], in [4], in [5] and in assay [6] was greater than 100 µM throughout. Further, the TGI in assay [7], in assay [9] and in assay [8] was greater than 100 µM throughout.
With `COC(=O)C1=C(O)c2cc3c(cc2[C@H](c2cc(OC)c(OC)c(OC)c2)C1)OCO3`, the TGI in assay [1] is 61.7 µM; in [2] it was greater than 100 µM; in [3], greater than 100 µM; in assay [4], greater than 100 µM; in assay [5], greater than 100 µM; in assay [6] it was greater than 100 µM. Moreover, the TGI in assay [7] and in [8] was greater than 100 µM each time.
In the case of `CCOc1ccc(N=Cc2ccc3ccccc3n2)cc1`, the TGI in assay [1], in assay [2], in assay [3], in [4], in assay [5] and in assay [6] was greater than 100 µM throughout. For the same compound, the figures for the TGI in assay [7], in [9] and in assay [8] were greater than 100 µM, greater than 100 µM and greater than 86.3 µM, respectively.
Turning to `Cc1ccc(-c2cc(=O)c3cc(C)c(C)c(C(=O)O)c3o2)cc1[N+](=O)[O-]`, the TGI in [2], in assay [3], in [4], in [5], in [6] and in assay [7] was greater than 100 µM in each case. The TGI in assay [9] and in assay [8] was greater than 100 µM in each case.
As to `COc1ccc2c(c1OC)C(C=C(c1ccccc1)c1ccccc1)CN(C)C2` (stereo not given), the TGI in [1] was 65 µM; in [2], 88.2 µM; in assay [3] it was greater than 100 µM; in assay [4] it was 56.6 µM; in [5], 42.7 µM; in assay [7], 63.1 µM. In assay [8], the TGI is greater than 100 µM.
`Fc1ccc2c(c1)cc1ccc3cccc4ccc2c1c34`: the TGI in assay [1], in assay [2], in assay [3], in assay [4], in assay [5] and in [6] was greater than 100 µM each time. Further, the TGI in [7], in assay [9] and in [8] was greater than 100 µM each time.
On to `CC(=O)Oc1cc(Cl)c(OC(C)=O)c2c(OC(C)=O)c(C)c(O[Si](C)(C)C(C)(C)C)cc12`, for which the TGI in [1] was determined as 4.77 µM; in assay [4] it was 13.5 µM; in [6] it was 12.9 µM; in [7] it was 17.1 µM; in assay [9] it was 42.6 µM.
For the compound `CC(CCC(=O)O)c1ccc(Br)cc1` (stereo not given), the TGI in [2], in assay [3], in assay [4], in assay [5], in assay [6] and in assay [7] was greater than 100 µM in each case. Moreover, the TGI in [9] and in assay [8] was greater than 100 µM throughout.
Regarding `C/C(=N\NS(=O)(=O)c1c(C)cc(C)cc1C)c1ccc[n+]([O-])n1`, the TGI is 86.6 µM in [1]; greater than 100 µM in [2]; 29.9 µM in assay [3]; 18.2 µM in [4]; 36 µM in assay [5]; 34 µM in assay [7]. Besides, the TGI in [8] is 41.2 µM.
As to `COC(=O)[C@H](Cc1cn(C)cn1)NC(=O)[C@@H](NC(=O)Nc1cc(C(F)(F)F)cc(C(F)(F)F)c1)C(C)(C)C`, the GI50 in assay [1], in assay [2], in [3], in assay [4], in [5] and in assay [6] was greater than 10 µM in each case. For the same compound, the GI50 in assay [7], in [9] and in [8] was greater than 10 µM each time. Besides, the TGI in [1], in assay [2], in assay [3], in assay [4], in assay [5] and in assay [6] was greater than 10 µM in each case. Moreover, the TGI in assay [7], in assay [9] and in [8] was greater than 10 µM in each case.
Turning to `[N-]=[N+]=NC1C2CC3CC(C2)CC1C3` (stereo not given), the TGI in assay [1], in assay [2], in assay [3], in [4], in assay [5] and in assay [6] was greater than 100 µM throughout. The TGI in [7], in assay [9] and in [8] was greater than 100 µM each time.
Regarding `OCCCCCNc1ccnc2cc(Cl)ccc12`, the TGI in assay [1], in assay [2], in assay [3], in assay [4], in assay [5] and in assay [7] was greater than 100 µM in each case. Moreover, the TGI in [9] and in assay [8] was greater than 100 µM throughout.
Take `CC1(C)Oc2ccccc2[N+]([O-])=C1c1ccccc1`: the TGI in [1], in [2], in assay [3], in [4], in assay [5] and in assay [7] was greater than 100 µM throughout. In addition, the TGI in assay [8] was greater than 100 µM.
As for `Nc1nc(CC2(O)CCCCC2)cc(-c2ccccc2)n1`, the TGI in [1] is greater than 73.3 µM; in assay [2], greater than 72.4 µM; in [3], greater than 100 µM; in assay [4] it was greater than 95.9 µM; in assay [5] it was greater than 49.2 µM; in [6], greater than 55.5 µM. For the same compound, the TGI was greater than 66.4 µM in assay [7], greater than 64.8 µM in [9] and 98.1 µM in assay [8].
For `CCC(C)(C)NS(=O)(=O)c1ccccc1`, the TGI in [1], in assay [2], in assay [3], in assay [4], in assay [5] and in assay [7] was greater than 100 µM in each case. The TGI in [9] and in assay [8] was greater than 100 µM in each case.
With `COc1cc2ccc3c4cc(OC)c(OC(C)C)cc4c[n+](C)c3c2cc1OC`, the TGI in assay [2], in assay [3], in assay [4], in assay [5], in [6] and in assay [7] was greater than 100 µM in each case. The figures for the TGI in assay [9] and in assay [8] were 55.6 µM and greater than 100 µM, respectively.
In the case of `Cc1nc2ccccc2c(/C=C/c2ccccc2)c1C(=O)/C=C/c1ccccc1`, the GI50 in assay [1] was 1.83 µM; in assay [2], 2.29 µM; in [3] it was 1.86 µM; in assay [4], 2.51 µM; in [5], 2.61 µM; in assay [6] it was 1.77 µM. Besides, the GI50 in assay [9] is 1.92 µM. In addition, the TGI in [1] is 3.46 µM; in assay [2], 6.06 µM; in assay [3], 3.62 µM; in assay [4], greater than 100 µM; in [5] it was 12 µM; in assay [6], 3.19 µM. This compound also yielded a TGI in assay [9] of 4.08 µM.
As for `COc1cc(/C=C2\Cc3ccccc3C2=O)cc(OC)c1OC`, the TGI in assay [2], in [3], in assay [4], in assay [5], in assay [6] and in assay [7] was greater than 100 µM each time. Also, the TGI in assay [9] and in assay [8] was greater than 100 µM in each case.
Regarding `O=C(CC1SC(=Nc2ccccc2Cl)NC1=O)Nc1ccc(Cl)cc1` (stereo not given), the TGI in [1], in assay [2], in assay [3], in assay [4], in assay [5] and in [6] was greater than 100 µM in each case. For the same compound, the TGI in assay [7] and in assay [9] was greater than 100 µM each time.
